In the assay the test system is primary rat mixed cortical cells. Description: In vitro myelination assay (MBP positive myelin strands, fold myelin pixels above background). The settings on record: Rattus norvegicus; for fold induction at 1 µM: 1.0 μM compound; for fold induction at 10 µM: 10.0 μM compound. In kind it is cell-based. In outline: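 Compounds at 1.0 and 10.0 μM were incubated 14 days with dissociated P1 rat cortical cells, which were then fixed and immunostained for MBP. Myelination was scored as fold MBP myelin pixels per well over the no-compound baseline.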

The mark [1] stands for this setting: relative to baseline of no added compound, read-out: Fold myelin pixels above background, 1.0 μM.
[2] abbreviates: relative to baseline of no added compound, read-out: Fold myelin pixels above background, 10.0 μM.
The mark [3] stands for this setting: read-out: Fold myelin pixels above background relative to baseline of no added compound.
Setting [4] is: relative to baseline of no added compound, read-out: Fold myelin pixels above background.

Like-named read-outs stand apart in the source and are kept apart here.

With `Cc1cc(Nc2ncn(-c3cc(F)cc(F)c3)n2)cc(N2CCN(C(=O)C(F)(F)F)CC2)c1` [Compound 352, 1-[4-[3-[[1-(3,5-difluorophenyl)-1,2,4-triazol-3-yl]amino]-5-methyl-phenyl]piperazin-1-yl]-2,2,2-trifluoro-ethanone], under setting [1], the fold induction at 1 µM is at most 1. Further, under setting [2], the fold induction at 10 µM is 100 to 1000.

With `Cc1cc(NCC2COCCO2)cc(Nc2ncn(-c3cc(F)cc(F)c3)n2)c1` (centres unmarked) [Compound 932, N1-[1-(3,5-difluorophenyl)-1,2,4-triazol-3-yl]-N3-(1,4-dioxan-2-ylmethyl)-5-methyl-benzene-1,3-diamine], under setting [3], the fold induction at 1 µM lay in the range of 1 to 10 and the fold induction at 10 µM is at most 1.

For the compound `COCCC1CN(c2cc(C)cc(Nc3ncn(-c4cc(F)cc(F)c4)n3)c2)CCO1` (centres unmarked) [Compound 1030, 1-(3,5-difluorophenyl)-N-[3-[2-(2-methoxyethyl)morpholin-4-yl]-5-methyl-phenyl]-1,2,4-triazol-3-amine], under setting [3], the fold induction at 1 µM was 10 to 100 and the fold induction at 10 µM was 1 to 10.

For `Cc1cc(Nc2ncn(-c3cc(F)cc(F)c3)n2)cc(N2CC(N3CCCOCC3)C2)c1` [Compound 808, 1-(3,5-difluorophenyl)-N-[3-methyl-5-[3-(1,4-oxazepan-4-yl)azetidin-1-yl]phenyl]-1,2,4-triazol-3-amine], under setting [3], the fold induction at 1 µM was in the range of 10 to 100 and the fold induction at 10 µM was at most 1.

With `Cc1cc(Nc2ncn(-c3cccnc3)n2)cc(N2CC3(C2)CN(C(C)C)C3)c1` [Compound 966, N-[3-(2-isopropyl-2,6-diazaspiro[3.3]heptan-6-yl)-5-methyl-phenyl]-1-(3-pyridyl)-1,2,4-triazol-3-amine], under setting [3], the fold induction at 1 µM lay in the range of 1 to 10 and the fold induction at 10 µM is at most 1.

As for `FC(F)c1cc(Nc2ncn(-c3ccccc3)n2)cc(N2CCOCC2)c1` [Compound 392, N-[3-(difluoromethyl)-5-morpholino-phenyl]-1-phenyl-1,2,4-triazol-3-amine], under setting [4], the fold induction at 1 µM is 100 to 1000 and the fold induction at 10 µM is 10 to 100.

Turning to `Cc1cc(Nc2ncn(-c3cc(F)cc(F)c3)n2)cc(N2CCN(CCN(C)C)CC2)c1` [Compound 809, 1-(3,5-difluorophenyl)-N-[3-[4-[2-(dimethylamino)ethyl]piperazin-1-yl]-5-methyl-phenyl]-1,2,4-triazol-3-amine], under setting [3], the fold induction at 1 µM is 1 to 10 and the fold induction at 10 µM is at most 1.

Take `Cc1cc(Nc2ncn(-c3cccc(F)c3)n2)cc(N2CC3(C2)CN(C(C)C)C3)c1` [Compound 1071, 1-(3-fluorophenyl)-N-[3-(2-isopropyl-2,6-diazaspiro[3.3]heptan-6-yl)-5-methyl-phenyl]-1,2,4-triazol-3-amine]: under setting [3], the fold induction at 1 µM is 10 to 100 and the fold induction at 10 µM is at most 1.

On to `Fc1ccc(-n2cnc(Nc3cc(C(F)F)cc(N4CCN(C5COC5)CC4)n3)n2)cc1Cl` [Compound 859, N-[1-(3-chloro-4-fluoro-phenyl)-1,2,4-triazol-3-yl]-4-(difluoromethyl)-6-[4-(oxetan-3-yl)piperazin-1-yl]pyridin-2-amine], for which, under setting [3], the fold induction at 1 µM was 1 to 10 and the fold induction at 10 µM was in the range of 1 to 10.

Take `Cc1cc(Nc2ncn(-c3cc(F)cc(F)c3)n2)cc(N2C[C@H]3C[C@@H]2CN3C2COC2)c1` [Compound 185, 1-(3,5-difluorophenyl)-N-[3-methyl-5-[(1R,4R)-2-(oxetan-3-yl)-2,5-diazabicyclo[2.2.1]heptan-5-yl]phenyl]-1,2,4-triazol-3-amine]: under setting [1], the fold induction at 1 µM was 100 to 1000. The fold induction at 10 µM under setting [2] was 1 to 10.

Regarding `Cc1cc(Nc2ncn(-c3cc(F)cc(F)c3)n2)cc(OCC2CCOC2)c1` (centres unmarked) [Compound 648, 1-(3,5-difluorophenyl)-N-[3-methyl-5-(tetrahydrofuran-3-ylmethoxy)phenyl]-1,2,4-triazol-3-amine], under setting [4], the fold induction at 1 µM lay in the range of 10 to 100 and the fold induction at 10 µM lay within 10 to 100.

Consider `CC1CCN(c2cc(Nc3ncn(-c4ccc(F)c(F)c4)n3)cc(C3CC3)n2)CC1` [Compound 202, 2-cyclopropyl-N-[1-(3,4-difluorophenyl)-1,2,4-triazol-3-yl]-6-(4-methyl-1-piperidyl)pyridin-4-amine], for which the fold induction at 1 µM under setting [1] fell in the range of 100 to 1000. Also, under setting [2], the fold induction at 10 µM lay in the range of 10 to 100.

As for `N#Cc1cc(Nc2ncn(-c3cccc(F)c3)n2)cc(N2CCN(C3COC3)CC2)c1` [Compound 793, 3-[[1-(3-fluorophenyl)-1,2,4-triazol-3-yl]amino]-5-[4-(oxetan-3-yl)piperazin-1-yl]benzonitrile], under setting [3], the fold induction at 1 µM was 1 to 10 and the fold induction at 10 µM is at most 1.

For the compound `Cc1cc(Nc2ncn(-c3cc(F)cc(F)c3)n2)nc(N2CCN([C@H]3CCOC3)CC2)c1` (single isomer, unassigned) [Compound 740], under setting [4], the fold induction at 1 µM lay within 10 to 100 and the fold induction at 10 µM was 10 to 100.

Turning to `Cc1cc(Nc2ncn(-c3cc(F)cc(F)c3)n2)cc(N2CCCC(N3CCCC3=O)C2)c1` (centres unmarked) [Compound 114, 1-[1-[3-[[1-(3,5-difluorophenyl)-1,2,4-triazol-3-yl]amino]-5-methyl-phenyl]-3-piperidyl]pyrrolidin-2-one], the fold induction at 1 µM under setting [1] lay within 10 to 100. The fold induction at 10 µM under setting [2] lay in the range of 10 to 100.

Regarding `Cc1cc(Nc2ncn(-c3ccccc3)n2)cc(N2C[C@@H]3C[C@H]2CN3C)c1` [Compound 479, N-[3-methyl-5-[(1S,4S)-5-methyl-2,5-diazabicyclo[2.2.1]heptan-2-yl]phenyl]-1-phenyl-1,2,4-triazol-3-amine], under setting [4], the fold induction at 1 µM lay within 100 to 1000 and the fold induction at 10 µM was at most 1.

In the case of `Cc1cc(Nc2ncn(-c3ccccc3)n2)cc(N2CCCN(C3CC3)CC2)c1` [Compound 337, N-[3-(4-cyclopropyl-1,4-diazepan-1-yl)-5-methyl-phenyl]-1-phenyl-1,2,4-triazol-3-amine], the fold induction at 1 µM under setting [1] lay within 100 to 1000. Moreover, the fold induction at 10 µM under setting [2] is at most 1.

With `Cc1cc(Nc2ncn(-c3cc(F)cc(F)c3)n2)cc(N2CCNCC2=O)c1` [Compound 93, 1-[3-[[1-(3,5-difluorophenyl)-1,2,4-triazol-3-yl]amino]-5-methyl-phenyl]piperazin-2-one], the fold induction at 1 µM under setting [1] fell in the range of 10 to 100. In addition, the fold induction at 10 µM under setting [2] was in the range of 100 to 1000.

For the compound `CC(C)(C)c1cc(Nc2ncn(-c3ccccc3)n2)cc(N2CCN(C3COC3)CC2)c1` [Compound 376, N-[3-tert-butyl-5-[4-(oxetan-3-yl)piperazin-1-yl]phenyl]-1-phenyl-1,2,4-triazol-3-amine], under setting [1], the fold induction at 1 µM is 100 to 1000. For the same compound, the fold induction at 10 µM under setting [2] was 1 to 10.

With `Cc1cc(Nc2ncn(-c3cc(F)cc(F)c3)n2)nc(N2CCOCC2)c1` [Compound 560, N-[1-(3,5-difluorophenyl)-1,2,4-triazol-3-yl]-4-methyl-6-morpholino-pyridin-2-amine], under setting [4], the fold induction at 1 µM lay within 10 to 100 and the fold induction at 10 µM fell in the range of 100 to 1000.

Regarding `Fc1cc(F)cc(-n2cnc(Nc3cc(Cl)cc(NC4COC4)c3)n2)c1` [Compound 705, 5-chloro-N3-[1-(3,5-difluorophenyl)-1,2,4-triazol-3-yl]-N1-(oxetan-3-yl)benzene-1,3-diamine], under setting [4], the fold induction at 1 µM fell in the range of 10 to 100 and the fold induction at 10 µM is 1 to 10.

As to `Clc1cncc(-n2cnc(Nc3cc(C4CC4)cc(N4CCN(C5COC5)CC4)c3)n2)c1` [Compound 134, 1-(5-chloro-3-pyridyl)-N-[3-cyclopropyl-5-[4-(oxetan-3-yl)piperazin-1-yl]phenyl]-1,2,4-triazol-3-amine], the fold induction at 1 µM under setting [1] lay in the range of 100 to 1000. Moreover, under setting [2], the fold induction at 10 µM was in the range of 10 to 100.

In the case of `Cc1cc(Nc2ncn(-c3ccccc3)n2)cc(N2CCN(C3COC3)CC2)c1` [Compound 118, N-[3-methyl-5-[4-(oxetan-3-yl)piperazin-1-yl]phenyl]-1-phenyl-1,2,4-triazol-3-amine], under setting [1], the fold induction at 1 µM lay within 100 to 1000. Under setting [2], the fold induction at 10 µM was in the range of 10 to 100.

In the case of `Clc1cccc(-n2cnc(Nc3cc(C4CC4)cc(N4CCN(C5COC5)CC4)c3)n2)c1` [Compound 55, 1-(3-chlorophenyl)-N-[3-cyclopropyl-5-[4-(oxetan-3-yl)piperazin-1-yl]phenyl]-1,2,4-triazol-3-amine], the fold induction at 1 µM under setting [1] lay in the range of 100 to 1000. For the same compound, the fold induction at 10 µM under setting [2] was at most 1.

For the compound `COC(=O)N1CCCC(c2cc(C)cc(Nc3ncn(-c4ccccc4)n3)c2)C1` (centres unmarked) [Compound 143, methyl 3-[3-methyl-5-[(1-phenyl-1,2,4-triazol-3-yl)amino]phenyl]piperidine-1-carboxylate], under setting [1], the fold induction at 1 µM was in the range of 1000 to 10000. For the same compound, the fold induction at 10 µM under setting [2] was in the range of 1000 to 10000.

Turning to `Cc1cc(Nc2ncn(-c3cnccn3)n2)cc(N2CCN(C3CC(F)(F)C3)CC2)c1` [Compound 75, N-[3-[4-(3,3-difluorocyclobutyl)piperazin-1-yl]-5-methyl-phenyl]-1-pyrazin-2-yl-1,2,4-triazol-3-amine], under setting [1], the fold induction at 1 µM is at most 1. Moreover, under setting [2], the fold induction at 10 µM was 100 to 1000.

As to `Cc1cc(Nc2ncn(-c3cnccn3)n2)cc(C2(C)CNC(=O)O2)c1` (centres unmarked) [Compound 741, 5-methyl-5-[3-methyl-5-[(1-pyrazin-2-yl-1,2,4-triazol-3-yl)amino]phenyl]oxazolidin-2-one], under setting [4], the fold induction at 1 µM lay within 10 to 100 and the fold induction at 10 µM was 1 to 10.

For `CC(C)c1cc(Nc2ncn(-c3cc(F)cc(F)c3)n2)cc(N2CCN(C3COC3)CC2)c1` [Compound 359, 1-(3,5-difluorophenyl)-N-[3-isopropyl-5-[4-(oxetan-3-yl)piperazin-1-yl]phenyl]-1,2,4-triazol-3-amine], the fold induction at 1 µM under setting [1] lay in the range of 1000 to 10000. Under setting [2], the fold induction at 10 µM is at most 1.

Values taken from patent publication US10766869B2, “Triazoles for the treatment of demyelinating dieases” (Vertex Pharmaceuticals Incorporated, priority 2015, dated 2020).
